Consider two compounds from patent EP3118613B1, “ELECTRIC COMPONENT WITH ORGANIC PART” (ACREO SWEDISH ICT AB, priority 2015, dated 2017).

“Also recorded” adds a separate entry of the source.

The nature of data set [1]: Cyclic voltammetry, onset potential of polymerization. It counts as physicochemical. Particulars: 1 mg/ml in 0.01 M NaCl, ITO working electrode, Ag/AgCl reference, 50 mV/s. On the procedure: In order to define the on-set potential of the polymerization of the trimer a three electrode setup was used. The working electrode is an ITO coated glass, the counter electrode is a Platinum sheet and the reference electrode is an Ag/AgCl saturated electrode. The electrolyte was 1mg/ml of compound 1 in 0.01M NaCl. The active area of the ITO was 21mm x 8mm. A cyclic voltametry was performed in order to define the onset potential. The potential was applied between the working and the reference electrode while the current was measured between the working and the counter electrode. The potential was scanned from +0.5V to -0.5V, starting from 0V with a scan rate of 50mV/s. During the first scan current increases at around +0.3V defining the onset potential of the polymerization were observed. The polymer is deposited on the active area of the ITO coated glass.
In order to define the on-set potential of the polymerization of the trimer we used a three electrode setup. The working electrode is an ITO coated glass, the counter electrode is a Platinum sheet and the reference electrode is a Ag/AgCl saturated electrode. The electrolyte was 1 mg/ml of compound 1 in 0.01 M NaCl. The active area of the ITO was 21 mm x 8 mm. […] The potential was applied between the working and the reference electrode while the current was measured between the working and the counter electrode. […]

Data set [2] in a line: Xylem supercapacitor, specific capacitance of xylem wire electrodes. It is filed as physicochemical, rose. The following applies: from slope of capacitance per area vs length of xylem wire. An excerpt:
Plant's anatomy upon functionalization with the conducting material provides an ideal architecture for developing supercapacitors in vivo. The long-range conducting xylem wires are parallel and electronically isolated to each other while are surrounded with cellular domains and extracellular space rich in electrolyte. Therefore we explored the charge storage capacity of the xylem wires. Two parallel xylem wires served as the electrodes (capacitor plates) and the plant tissue in between them the spacer. Two Au probes defined the electrodes contacts. In the schematic of Fig. 36.a we show the general structure and the wiring of a supercapacitor along with the optical micrograph of the corresponding supercapacitor in the plant Fig. 36.b.
From the slope of the discharging curve we calculate the capacitance of the device equal to 1.3 10^-4 F The capacitive behavior of the material is indicated and by the square shaped voltamogramm Fig. 43 in the potential range of -0.5V - 0.5V. In order to extract the specific capacitance of the xylem electrodes we measure devices of various dimensions. Xylem wires have typically diameter of 30-50um and lengths in the cm scale. In Fig. 36.d. we show the capacitance per area (diameter of xylem wire) vs the length. From the slope we calculated the specific capacitance and found it equal to 20F/cm3, a value in the typical range for conducting polymers. […]

Data set [3] in a line: Two-probe conductivity measurement of conducting wires in rose xylem. The following applies: xylem wires in rose stem, two Au probes. It is filed as physicochemical, Rosa floribunda. How it is done:
We chose to use cuttings of Rosa floribunda (garden rose) as our model plant system. The lower part of a rose stem was cut and the fresh cross section was immersed in an aqueous PEDOT-S:H solution for 24-48 h (Fig. 7A), during which time the PEDOT-S:H solution was taken up into the xylem vascular channel and transported apically. The rose was taken from the solution and rinsed in water. The outer bark, cortex and phloem of the bottom part of the stem were then gently peeled off, exposing dark continuous lines along individual 20-100 µm wide xylem channels (Fig. 7B-D). These "wires" extended more than 5 cm along the stem. […] The conductivity of PEDOT-S:H wires was measured using two Au probes applied into individual PEDOT-S:H xylem wires along the stem (Fig. 7D). From the linear fit of resistance versus distance between the contacts, we found electrical conductivity reading 0.13 S/cm with contact resistance ∼10 kΩ (Fig. 7E). […]
Figure 29A is an external views of a plant part, in this case the steam where the epidermis has been peeled off, also showing two gold plated microelectrodes 2300 used to contact and penetrate a surface of the stem in order to reach the xylem channel. […] This is the currently highest measured electronic conductivity in a plant. […]

Data set [4] in a line: Conductivity of ETE-S polymerized in air. It is filed as physicochemical. On the procedure:
The conductivity of ETE-S based wires was measured using two Au probes applied into individual xylem wires along the stem (Fig. 38) and found to be equal to 7.25 +- 3.38 S/cm (n=17). […] The high conductivity was retained for cm scale wires showing that good interconnectivity is achieved along the xylem wires. […] The conductivity of 10mg/ml solution is 10^-5 S/cm while for 50mg/ml is on the order of 10^-3S/CM. In the plants we typically administrate 5ml solution of 1mg/ml concentration. An estimation of the total volume of the xylem tubing in a rose cutting of 15cm is 0.15ml taking into account an average diameter of xylem to be 20um. For this volume and since all the solution is taken up form the plant we end up with concentrations of the ETE-S molecule in the order of 30mg/ml. From microscopy images we see that approximately only 10% of the xylem is filled, while the majority of the rest is coated with the material and for that volume we have concentrations up to 300mg/ml. This high concentration in the plant allows the material to organize and polymerize in a way that creates highly conducting wires.

Data set [5] has as its system young bean plant. In words: Immersion of bean plant roots or stem in compound 1 solution, plant survival and growth. It counts as in vivo. The following applies: roots or stem immersed in 1 mg/mL aqueous solution; replanted in gel. On the procedure: Figure 16A-E illustrates another experiment, with references to the alphabetical parts of figure in parenthesis. A young bean plant having a plurality of roots was used as a test specimen. In (A) the roots of the young bean plant were planted in a plastic container having Seedhru® gel as a soil substitute.. Two of the roots of the bean plant were immersed in a vial 1600 (B) containing aqueous solution of compound 1 (1 mg/mL). […] As soon as or shortly after the two roots were immersed the color of the compound 1 solution shifted from white to pink (D) and then back to white again. The reason of the color shift is still being investigated. […] After 24 hours one of the roots was removed from the compound 1 solution and can be seen in (E) and in figure 17. The other root was left immersed in the compound 1 solution for 24 more hours (total 48hours). After 48 hours the second root was cut of the bean plant and can be seen in figure 18.. Note that the part of the root which was immersed in compound 1 is now coated with polymerized compound 1 as indicated by the darker color. […]

Turning to `c1scc2c1OCCO2` [EDOT], in data set [1], the “onset potential of the polymerization” value was determined as 1.1 V.

For “exo-EDOT-Thiophene-EDOT-alkoxylfonate [compound 1]”, the specific capacitance in data set [2] is 20 F/cm3. Moreover, in data set [3], the electrical conductivity result was “approximately 1.5 S/cm”. Moreover, the conductivity in data set [4] (10mg/ml solution) is on record as 10^-5 S/cm; in data set [4] (50mg/ml solution), ~10^-3 S/CM. Moreover, the “growth or survival of the plant” value in data set [5] is reported as “survives for at least two weeks; also recorded: showed further growth”.
